Laboratory results published in patent US11958854B2 (Hydra Biosciences, LLC, priority 2013, dated 2024).

Target: T1, hTRPC4 (Homo sapiens, UniProt Q9UBN4)
T1 sequence (Q9UBN4 1-977): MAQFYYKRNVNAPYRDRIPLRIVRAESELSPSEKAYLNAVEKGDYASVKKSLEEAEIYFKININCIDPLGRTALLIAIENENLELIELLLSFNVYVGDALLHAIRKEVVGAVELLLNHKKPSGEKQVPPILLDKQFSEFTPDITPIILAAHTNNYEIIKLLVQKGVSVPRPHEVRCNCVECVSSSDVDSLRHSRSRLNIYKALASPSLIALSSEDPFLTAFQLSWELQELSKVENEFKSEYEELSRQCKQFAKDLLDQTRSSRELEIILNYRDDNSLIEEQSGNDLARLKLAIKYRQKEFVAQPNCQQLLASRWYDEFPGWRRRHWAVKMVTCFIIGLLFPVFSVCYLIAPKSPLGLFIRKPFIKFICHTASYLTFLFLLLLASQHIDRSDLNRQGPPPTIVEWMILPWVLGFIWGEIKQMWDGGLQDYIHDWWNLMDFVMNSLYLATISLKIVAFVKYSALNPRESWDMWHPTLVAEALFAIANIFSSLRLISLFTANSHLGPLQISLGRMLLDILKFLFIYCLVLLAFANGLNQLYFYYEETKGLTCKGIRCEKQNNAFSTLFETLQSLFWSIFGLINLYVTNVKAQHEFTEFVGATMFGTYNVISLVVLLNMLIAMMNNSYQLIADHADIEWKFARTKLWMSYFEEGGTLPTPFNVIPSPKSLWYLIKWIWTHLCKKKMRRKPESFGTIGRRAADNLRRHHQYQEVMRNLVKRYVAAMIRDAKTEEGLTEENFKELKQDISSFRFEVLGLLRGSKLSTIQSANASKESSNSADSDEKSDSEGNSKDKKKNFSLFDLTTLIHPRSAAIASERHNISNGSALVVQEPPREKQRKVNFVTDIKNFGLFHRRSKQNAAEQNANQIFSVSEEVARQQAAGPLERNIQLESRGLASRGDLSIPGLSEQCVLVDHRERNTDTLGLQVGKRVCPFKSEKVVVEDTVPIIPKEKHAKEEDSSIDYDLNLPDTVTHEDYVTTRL
Test: Whole-cell patch clamp, inward current (Table B)
Format: cell-based
Details: IC50 estimated by testing at 5 μM and 500 nM, all batches, read-out: hTRPC4 Patch Inwd (nM) (All Batches)
Excerpt: Patch clamp experiments permit the detection of currents through the TRPC5 channel in the cell line described above. In normal whole-cell patch clamp recordings, a glass electrode is brought into contact with a single cell and a high-resistance (gigaohm) seal is established with the cell membrane. The membrane is then ruptured to achieve the whole-cell configuration, permitting control of the voltage of the cell membrane and measurement of currents flowing across the membrane using the amplifier attached to the electrode and resulting in the replacement of cytoplasm with the pipette solution. A perfusion system permits control of the extracellular solution, including the addition of blockers and activators of the current.
TRPC5 cells were induced 20-48 hours, removed from growth plates, and replated at low density (to attain good single-cell physical separation) on glass coverslips for measurement. In some cases, cells were grown in low density overnight on glass coverslips. Patch clamp recordings were made in the whole-cell mode with a holding potential of −40 mV. Every 5 seconds, a voltage ramp was applied from −120 to +100 mV, 400 ms in duration. Currents elicited were quantified at −80 mV and +80 mV. […] The external solution consisted of 150 mM NaCl, 4.5 mM KCl, 1 mM MgCl2, 2 mM CaCl2), 10 mM HEPES, 10 mM glucose, 1 mM EGTA, pH 7.4. […] Potential blockers were tested for ability to block both inward and outward currents in the continued presence of LaCl3.
“F” refers to agonist compounds. “ND” refers to compounds wherein the IC50 was not determined.

IC50 [nM] | Structure (SMILES)
< 100 | CCCOc1nc2c(c(=O)n(CCCO)c(=O)n2C)n1Cc1ccc(Cl)cc1 [Example 82]
< 100 | Cc1cnc(Cn2c(Oc3cccc(OC(F)(F)F)c3)nc3c2c(=O)n(CCCO)c(=O)n3C)s1 [Example 161]
< 100 | CC(C)CCn1c(Oc2cccc(OC(F)(F)F)c2)nc2c1c(=O)n(CCCO)c(=O)n2C [Example 587]

The remaining lines, values behind:

Structure (SMILES) | IC50 [nM]
CCn1c(=O)n(CCCO)c(=O)c2c1nc(Oc1cccc(OC(F)(F)F)c1)n2Cc1ccccc1 [Example 145] | < 100
Cn1c(=O)n(CCCO)c(=O)c2c1nc(Oc1cccc(OC(F)(F)F)c1)n2Cc1ccc(Cl)cc1 [Example 30] | < 100
CC(C)c1ccccc1-c1nc2c(c(=O)n(CCCO)c(=O)n2C)n1Cc1ccccc1 [Example 485] | < 100
